# Experimental data: ChEMBL document CHEMBL2413072, “Synthesis and in vitro anticancer studies of novel C-2 arylidene congeners of lantadenes” (2013)
# What was measured:
# Format in all cases: functional
# KM12 = assay: Growth inhibition of human KM12 cells by sulforhodamine B assay
# HCT-116 = assay: Growth inhibition of human HCT116 cells by sulforhodamine B assay
# NCI-H322M = assay: Growth inhibition of human NCI-H322M cells by sulforhodamine B assay
# K562 [1] = assay: Growth inhibition of human K562 cells by sulforhodamine B assay
# UACC-62 = assay: Growth inhibition of human UACC62 cells assessed as cell growth at 10^-8 M by sulforhodamine B assay; conditions: read-out: Activity
# Malme-3M = assay: Growth inhibition of human MALME-3M cells assessed as cell growth at 10^-8 M by sulforhodamine B assay; conditions: read-out: Activity
# SNB-75 [2] = assay: Growth inhibition of human SNB75 cells assessed as cell growth at 10^-8 M by sulforhodamine B assay; conditions: read-out: Activity
# [3] = Growth inhibition of human HCC2998 cells assessed as cell growth at 10^-8 M by sulforhodamine B assay; conditions: HCC 2998, read-out: Activity
# SR [4] = assay: Growth inhibition of human SR cells assessed as cell growth at 10^-8 M by sulforhodamine B assay; conditions: read-out: Activity
# MOLT-4 = assay: Growth inhibition of human MOLT4 cells assessed as cell growth at 10^-8 M by sulforhodamine B assay; conditions: read-out: Activity
# T47D = assay: Growth inhibition of human T47D cells by sulforhodamine B assay
# MCF7 = assay: Growth inhibition of human MCF7 cells by sulforhodamine B assay
# OVCAR-8 [5] = assay: Growth inhibition of human OVCAR8 cells by sulforhodamine B assay
# UACC-257 = assay: Growth inhibition of human UACC257 cells by sulforhodamine B assay
# SNB-75 [6] = assay: Growth inhibition of human SNB75 cells by sulforhodamine B assay
# BT-549 = assay: Growth inhibition of human BT549 cells assessed as cell growth at 10^-4 M by sulforhodamine B assay; conditions: read-out: Activity
# [7] = Growth inhibition of human Hs 578T cells assessed as cell growth at 10^-4 M by sulforhodamine B assay; conditions: read-out: Activity
# CAKI-1 = assay: Growth inhibition of human CAKI-1 cells assessed as cell growth at 10^-4 M by sulforhodamine B assay; conditions: read-out: Activity
# OVCAR-8 [8] = assay: Growth inhibition of human OVCAR8 cells assessed as cell growth at 10^-4 M by sulforhodamine B assay; conditions: read-out: Activity
# MDA-MB-435 = assay: Growth inhibition of human MDA-MB-435 cells assessed as cell growth at 10^-4 M by sulforhodamine B assay; conditions: read-out: Activity
# SF-539 [9] = assay: Growth inhibition of human SF539 cells assessed as cell growth at 10^-4 M by sulforhodamine B assay; conditions: read-out: Activity
# SR [10] = assay: Growth inhibition of human SR cells assessed as cell growth at 10^-4 M by sulforhodamine B assay; conditions: read-out: Activity
# K562 [11] = assay: Growth inhibition of human K562 cells assessed as cell growth at 10^-4 M by sulforhodamine B assay; conditions: read-out: Activity
# DU-145 [12] = assay: Growth inhibition of human DU145 cells assessed as cell growth at 10^-6 M by sulforhodamine B assay; conditions: read-out: Activity
# UO-31 [13] = assay: Growth inhibition of human UO31 cells assessed as cell growth at 10^-6 M by sulforhodamine B assay; conditions: read-out: Activity
# RXF 393 = assay: Growth inhibition of human RXF393 cells assessed as cell growth at 10^-6 M by sulforhodamine B assay; conditions: read-out: Activity
# SK-MEL-2 = assay: Growth inhibition of human SK-MEL-2 cells assessed as cell growth at 10^-6 M by sulforhodamine B assay; conditions: read-out: Activity
# M14 = assay: Growth inhibition of human M14 cells assessed as cell growth at 10^-6 M by sulforhodamine B assay; conditions: read-out: Activity
# NCI-H23 = assay: Growth inhibition of human NCI-H23 cells assessed as cell growth at 10^-6 M by sulforhodamine B assay; conditions: read-out: Activity
# DU-145 [14] = assay: Growth inhibition of human DU145 cells assessed as cell growth at 10^-7 M by sulforhodamine B assay; conditions: read-out: Activity
# A498 = assay: Growth inhibition of human A498 cells assessed as cell growth at 10^-7 M by sulforhodamine B assay; conditions: read-out: Activity
# OVCAR-8 [15] = assay: Growth inhibition of human OVCAR8 cells assessed as cell growth at 10^-7 M by sulforhodamine B assay; conditions: read-out: Activity
# OVCAR-5 = assay: Growth inhibition of human OVCAR5 cells assessed as cell growth at 10^-7 M by sulforhodamine B assay; conditions: read-out: Activity
# LOX IMVI = assay: Growth inhibition of human LOXIMVI cells assessed as cell growth at 10^-7 M by sulforhodamine B assay; conditions: read-out: Activity
# SF-539 [16] = assay: Growth inhibition of human SF539 cells assessed as cell growth at 10^-7 M by sulforhodamine B assay; conditions: read-out: Activity
# SF-268 = assay: Growth inhibition of human SF268 cells assessed as cell growth at 10^-7 M by sulforhodamine B assay; conditions: read-out: Activity
# MDA-MB-231 = assay: Growth inhibition of human MDA-MB-231 cells assessed as cell growth at 10^-8 M by sulforhodamine B assay; conditions: read-out: Activity
# UO-31 [17] = assay: Growth inhibition of human UO31 cells assessed as cell growth at 10^-8 M by sulforhodamine B assay; conditions: read-out: Activity
# TK-10 = assay: Growth inhibition of human TK10 cells assessed as cell growth at 10^-8 M by sulforhodamine B assay; conditions: read-out: Activity
# OVCAR-4 = assay: Growth inhibition of human OVCAR4 cells assessed as cell growth at 10^-8 M by sulforhodamine B assay; conditions: read-out: Activity
# [18] = read-out: LC50 (the source's name)
# [19] = read-out: pLC50 (the source's name) (converted)
structure (smiles),measurement,setting,value
C/C=C(/C)C(=O)O[C@@H]1CC(C)(C)C[C@H]2C3=CC[C@@H]4[C@@]5(C)CCC(=O)C(C)(C)[C@@H]5CC[C@@]4(C)[C@]3(C)CC[C@@]12C(=O)O [LANTADENE A],GI50,KM12; read-out: GI50,3.52 µM
same,LC50 (50% net cell kill),KM12; read-out: LC50,> 100 µM
same,TGI,KM12; read-out: TGI,> 100 µM
same,GI50,KM12; read-out: pGI50 (converted),3.55 µM
same,LC50 (50% net cell kill),KM12; read-out: pLC50 (converted),> 100 µM
same,TGI,KM12; read-out: pTGI (converted),> 100 µM
same,GI50,HCT-116; read-out: GI50,3.62 µM
same,LC50,HCT-116; read-out: LC50,> 100 µM
same,TGI,HCT-116; read-out: TGI,> 100 µM
same,GI50,HCT-116; read-out: pGI50 (converted),3.63 µM
same,LC50,HCT-116; read-out: pLC50 (converted),> 100 µM
same,TGI,HCT-116; read-out: pTGI (converted),> 100 µM
same,GI50,NCI-H322M; read-out: GI50,3.94 µM
same,LC50 (50% lethal concentration),NCI-H322M; read-out: LC50,> 100 µM
same,TGI,NCI-H322M; read-out: TGI,> 100 µM
same,GI50,NCI-H322M; read-out: pGI50 (converted),3.98 µM
same,LC50 (50% lethal concentration),NCI-H322M; read-out: pLC50 (converted),> 100 µM
same,TGI,NCI-H322M; read-out: pTGI (converted),> 100 µM
same,GI50,K562 [1]; read-out: GI50,4.72 µM
same,LC50,K562 [1]; read-out: LC50,> 100 µM
same,TGI,K562 [1]; read-out: TGI,> 100 µM
same,GI50,K562 [1]; read-out: pGI50 (converted),4.68 µM
same,LC50,K562 [1]; read-out: pLC50 (converted),> 100 µM
same,TGI,K562 [1]; read-out: pTGI (converted),> 100 µM
same,growth at 0.01 µM,UACC-62,97%
same,growth at 0.01 µM,Malme-3M,98%
same,growth at 0.01 µM,SNB-75 [2],86%
same,growth at 0.01 µM,[3],106%
same,growth at 0.01 µM,SR [4],84%
same,growth at 0.01 µM,MOLT-4,104%
same,GI50,T47D; read-out: GI50,6.15 µM
same,CC50,T47D; [18],> 100 µM
same,TGI,T47D; read-out: TGI,> 100 µM
same,GI50,T47D; read-out: pGI50 (converted),6.17 µM
same,CC50,T47D; [19],> 100 µM
same,TGI,T47D; read-out: pTGI (converted),> 100 µM
same,GI50,MCF7; read-out: GI50,3.6 µM
same,CC50,MCF7; [18],> 100 µM
same,TGI,MCF7; read-out: TGI,> 100 µM
same,GI50,MCF7; read-out: pGI50 (converted),3.63 µM
same,CC50,MCF7; [19],> 100 µM
same,TGI,MCF7; read-out: pTGI (converted),> 100 µM
same,GI50,OVCAR-8 [5]; read-out: GI50,4.97 µM
same,CC50,OVCAR-8 [5]; [18],> 100 µM
same,TGI,OVCAR-8 [5]; read-out: TGI,> 100 µM
same,GI50,OVCAR-8 [5]; read-out: pGI50 (converted),5.01 µM
same,CC50,OVCAR-8 [5]; [19],> 100 µM
same,TGI,OVCAR-8 [5]; read-out: pTGI (converted),> 100 µM
same,GI50,UACC-257; read-out: GI50,4.81 µM
same,CC50,UACC-257; [18],> 100 µM
same,TGI,UACC-257; read-out: TGI,> 100 µM
same,GI50,UACC-257; read-out: pGI50 (converted),4.79 µM
same,CC50,UACC-257; [19],> 100 µM
same,TGI,UACC-257; read-out: pTGI (converted),> 100 µM
same,GI50,SNB-75 [6]; read-out: GI50,14.2 µM
same,CC50,SNB-75 [6]; [18],> 100 µM
same,TGI,SNB-75 [6]; read-out: TGI,> 100 µM
same,GI50,SNB-75 [6]; read-out: pGI50 (converted),14.1 µM
same,CC50,SNB-75 [6]; [19],> 100 µM
same,TGI,SNB-75 [6]; read-out: pTGI (converted),> 100 µM
same,growth at 100 µM,BT-549,18%
same,growth at 100 µM,[7],21%
same,growth at 100 µM,CAKI-1,20%
same,growth at 100 µM,OVCAR-8 [8],24%
same,growth at 100 µM,MDA-MB-435,25%
same,growth at 100 µM,SF-539 [9],17%
same,growth at 100 µM,SR [10],12%
same,growth at 100 µM,K562 [11],28%
same,growth at 1 µM,DU-145 [12],102%
same,growth at 1 µM,UO-31 [13],87%
same,growth at 1 µM,RXF 393,81%
same,growth at 1 µM,SK-MEL-2,108%
same,growth at 1 µM,M14,80%
same,growth at 1 µM,NCI-H23,97%
same,growth at 0.1 µM,DU-145 [14],107%
same,growth at 0.1 µM,A498,86%
same,growth at 0.1 µM,OVCAR-8 [15],98%
same,growth at 0.1 µM,OVCAR-5,100%
same,growth at 0.1 µM,LOX IMVI,95%
same,growth at 0.1 µM,SF-539 [16],103%
same,growth at 0.1 µM,SF-268,101%
same,growth at 0.01 µM,MDA-MB-231,99%
same,growth at 0.01 µM,UO-31 [17],96%
same,growth at 0.01 µM,TK-10,99%
same,growth at 0.01 µM,OVCAR-4,95%
